# Assay results taken from patent US8815849B2, “Hetero-bicyclic derivatives as HCV inhibitors” (Janssen R&D Ireland, priority 2010, dated 2014).
# Where two headings read alike, the source gives them in different places.
# What was measured:
# [1] = test system: HCV replicon (Huh-Luc cells, NS3-NS5B regions of HCV type 1b); assay: HCV replicon assay (Huh-7 luc/neo, luciferase readout); format: cell-based; details: average if tested more than once
# Text: The in vitro antiviral activity against HCV of the compounds of formula I can be tested in a cellular HCV replicon system based on Lohmann et al. (1999) Science 285:110-113, with the further modifications described by Krieger et al. (2001) Journal of Virology 75: 4614-4624 (incorporated herein by reference), which is further exemplified in the examples section. This model, while not a complete infection model for HCV, is widely accepted as the most robust and efficient model of autonomous HCV RNA replication currently available. It will be appreciated that it is important to distinguish between compounds that specifically interfere with HCV functions from those that exert cytotoxic or cytostatic effects in the HCV replicon model, and as a consequence cause a decrease in HCV RNA or linked reporter enzyme concentration. Assays are known in the field for the evaluation of cellular cytotoxicity based for example on the activity of mitochondrial enzymes using fluorogenic redox dyes such as resazurin. Furthermore, cellular counter screens exist for the evaluation of non-selective inhibition of linked reporter gene activity, such as firefly luciferase. Appropriate cell types can be equipped by stable transfection with a luciferase reporter gene whose expression is dependent on a constitutively active gene promoter, and such cells can be used as a counter-screen to eliminate non-selective inhibitors.
# The compounds of formula (I) were examined for inhibitory activity in the HCV replicon. This cellular assay is based on a bicistronic expression construct, as described by Lohmann et al. (1999) Science vol. 285 pp. 110-113 with modifications described by Krieger et al. (2001) Journal of Virology 75: 4614-4624, in a multi-target screening strategy.
# The assay utilized the stably transfected cell line Huh-7 luc/neo (hereafter referred to as Huh-Luc). This cell line harbors an RNA encoding a bicistronic expression construct comprising the wild type NS3-NS5B regions of HCV type 1b translated from an
# Internal Ribosome Entry Site (IRES) from encephalomyocarditis virus (EMCV), preceded by a reporter portion (FfL-luciferase), and a selectable marker portion (neo^R, neomycine phosphotransferase). The construct is flanked by 5′ and 3′ NTRs (non-translated regions) from HCV type 1b. Continued culture of the replicon cells in the presence of G418 (neo^R) is dependent on the replication of the HCV RNA. The stably transfected replicon cells that express HCV RNA, which replicates autonomously and to high levels, encoding inter alia luciferase, were used for screening the antiviral compounds.
# The replicon cells were plated in 384 well plates in the presence of the test and control compounds which were added in various concentrations. Following an incubation of three days, HCV replication was measured by assaying luciferase activity (using standard luciferase assay substrates and reagents and a Perkin Elmer ViewLux™ ultraHTS microplate imager). Replicon cells in the control cultures have high luciferase expression in the absence of any inhibitor. The inhibitory activity of the compound on luciferase activity was monitored on the Huh-Luc cells, enabling a dose-response curve for each test compound. EC50 values were then calculated, which represent the amount of compound required to decrease the level of detected luciferase activity by 50%, or more specifically, to reduce the ability of the genetically linked HCV replicon RNA to replicate.
# Where a compound of formula (I) was tested more than once in the replicon assay, the average of all test results is given in this Table 1.
# LLC-MDR1 monolayers = format: in vitro ADME; details: pig, LLC-PK1, 120 min
# Description: Assay Description for the Measurement of Transepithelial Transport of Test Compounds Through LLC-MDR1 Monolayers
# The integrity of the cellular monolayer was assessed in each incubation well through the inclusion of the fluorescent, low permeability marker compound, Fluorescein.
# In detail, LLC-MDR1 cells (LLC-PK1 cells stably transduced with MDR1 in a trans-well system) were seeded on 24-well cell culture inserts (Millicell®-PCF, 0.4 μm, 13 mm Ø, 0.7 cm^2) at 400 000 cells/cm^2. Cell culture medium consists of Medium 199 supplemented with 10% Fetal Bovine Serum (FBS) and 100 U/mL Penicillin/streptomycin and was replaced the day after seeding and the day before the experiment. The transport experiment was performed 5 days after seeding. On the day of the experiment, solutions of the test compounds were applied to the apical side of the monolayers to assess transport in the AtoB direction,. The medium used in the assay was (OPTI-MEM (1×) (GIBCO) with 1 w/v % Bovine Serum Albumin. Inserts were incubated at 37° C. in a humidified incubator containing 5% CO2. Samples from the acceptor and donor compartments were collected after an incubation time of 120 min, to assess the permeability and to allow estimation of the test compound recovery during the experiment, respectively. Transport experiments were performed in triplicate. Absolute test compound concentrations were measured using LC-MS/MS and quantified via a calibration curve.
# [2] = Hepatitis C virus, Huh-7, 72 h, Huh-Luc replicon cells, three days incubation, luciferase activity, read-out: HCV-REP-HUH7LUC_EC50
# [3] = Huh-Luc replicon cells, three days incubation, luciferase activity, read-out: HCV-REP-HUH7LUC_EC50
Compound,"EC50 [1, 2]","EC50 [1, 3]",further results
COC(=O)N[C@H](C(=O)N1CCC[C@H]1c1ncc(-c2ccc3cc(-c4ccc5c(=O)[nH]c([C@@H]6CCCN6C(=O)[C@H](NC(=O)OC)c6ccccc6)nc5c4)ccc3c2)[nH]1)C(C)C [Compound 44-2],0.084 nM,,A->B permeability (Papp × 10^−6 cm/sec) in the presence the P-gp inhibitor GF120918 (LLC-MDR1 monolayers): 5.5 10^−6 cm/sec
CC[C@H](NC(=O)OC)C(=O)N1CCCC1c1cc(=O)c2ccc(-c3ccc4cc(-c5cnc([C@@H]6CCCN6C(=O)[C@@H](NC(=O)OC)C(C)C)[nH]5)ccc4c3)cc2[nH]1 (stereo partly shown) [Compound 13-A2],0.079 nM,,
COC(=O)N[C@H](C(=O)N1CCCC1c1cc2ccc(-c3ccc4cc(-c5cnc([C@@H]6CCCN6C(=O)[C@@H](NC(=O)OC)C(C)C)[nH]5)ccc4c3)cc2c(=O)[nH]1)C(C)C (stereo partly shown) [Compound 20],0.79 nM,,
COC(=O)N[C@H](C(=O)N1CCC[C@H]1c1ncc(-c2ccc3cc(-c4ccc5c(=O)[nH]c([C@@H]6CCCN6C(=O)[C@H](NC(=O)OC6CCCC6)c6ccccc6)nc5c4)ccc3c2)[nH]1)C(C)C [Compound 44-3],1 nM,,
"COC(=O)N[C@H](C(=O)N1CCCC1c1cc(=O)c2cc(-c3ccc4cc(-c5cnc([C@@H]6CCCN6C(=O)[C@@H](NC(=O)OC)C(C)C)[nH]5)ccc4c3)ccc2[nH]1)C(C)C (single isomer, unassigned) [Compound 22a]",,3.4 nM,
COC(=O)N[C@H](C(=O)N1CCC[C@H]1c1ncc(-c2ccc3cc(-c4ccc5c(=O)cc(C6CCCN6C(=O)[C@@H](NC(=O)OC)[C@@H](C)OC)[nH]c5c4)ccc3c2)[nH]1)C(C)C (stereo partly shown) [Compound 13-A1],0.1 nM,,
"COC(=O)N[C@H](C(=O)N1CCCC1c1[nH]c2cc(-c3ccc4cc(-c5cnc([C@@H]6CCCN6C(=O)[C@@H](NC(=O)OC)C(C)C)[nH]5)ccc4c3)ccc2c(=O)c1Cl)C(C)C (single isomer, unassigned) [Compound 106b]",,20.6 nM,
COC(=O)N[C@H](C(=O)N1CCCC1c1cc(=O)c2ncc(-c3ccc4cc(-c5cnc([C@@H]6CCCN6C(=O)[C@@H](NC(=O)OC)C(C)C)[nH]5)ccc4c3)cc2[nH]1)C(C)C (stereo partly shown) [Compound 97],0.24 nM,,
"CC[C@H](C)[C@H](NC(=O)OC)C(=O)N1CCCC1c1cc(=O)c2cc(-c3ccc4cc(-c5cnc([C@@H]6CCCN6C(=O)[C@@H](NC(=O)OC)[C@@H](C)CC)[nH]5)ccc4c3)ccc2[nH]1 (single isomer, unassigned) [Compound 24a]",,9.6 nM,
COC(=O)N[C@H](C(=O)N1CCCC1c1cc(=O)c2cc(-c3ccc4cc(-c5cnc([C@@H]6CCCN6C(=O)[C@@H](NC(=O)OC)[C@@H](C)OC)[nH]5)ccc4c3)ccc2[nH]1)[C@@H](C)OC (stereo partly shown) [Compound 23],0.47 nM,,
"COC(=O)N[C@H](C(=O)N1CCCC1c1cc(=O)c2cc(-c3ccc4cc(-c5cnc([C@@H]6CCCN6C(=O)[C@@H](NC(=O)OC)C(C)C)[nH]5)ccc4c3)ccc2[nH]1)C(C)C (single isomer, unassigned) [Compound 22b]",,0.052 nM,
COC(=O)N[C@H](C(=O)N1CCCC1c1cc(=O)c2cc(-c3ccc4cc(-c5cnc([C@@H]6CCCN6C(=O)[C@@H](NC(=O)OC)C(C)C)[nH]5)ccc4c3)ccc2[nH]1)C(C)C (stereo partly shown) [Compound 22],,0.075 nM,
COC(=O)N[C@H](C(=O)N1CCCC1c1cc(=O)c2ccc(-c3ccc4cc(-c5cnc([C@@H]6CCCN6C(=O)[C@@H](NC(=O)OC)C(C)C)[nH]5)ccc4c3)cc2[nH]1)C(C)C (stereo partly shown) [Compound 13],,0.028 nM,
COC(=O)N[C@H](C(=O)N1CCCC1c1cc(=O)c2ccc(-c3ccc4cc(-c5cnc([C@@H]6CCCN6C(=O)[C@@H](NC(=O)OC)C(C)C)[nH]5)ccc4c3)cc2[nH]1)C(C)C (stereo partly shown) [Compound 13a],,0.91 nM,
COC(=O)N[C@H](C(=O)N1CCC[C@H]1c1ncc(-c2ccc3cc(-c4ccc5c(=O)[nH]c([C@@H]6CCCN6C(=O)[C@H](NC(=O)OC6CCC6)c6ccccc6)nc5c4)ccc3c2)[nH]1)C(C)C [Compound 44-4],9.8 nM,,
COC[C@H](NC(=O)OC)C(=O)N1CCCC1c1cc(=O)c2ccc(-c3ccc4cc(-c5cnc([C@@H]6CCCN6C(=O)[C@@H](NC(=O)OC)C(C)C)[nH]5)ccc4c3)cc2[nH]1 (stereo partly shown) [Compound 13-A8],0.18 nM,,
COCC[C@H](NC(=O)OC)C(=O)N1CCCC1c1cc(=O)c2ccc(-c3ccc4cc(-c5cnc([C@@H]6CCCN6C(=O)[C@@H](NC(=O)OC)C(C)C)[nH]5)ccc4c3)cc2[nH]1 (stereo partly shown) [Compound 13-A6],0.5 nM,,
COC(=O)N[C@H](C(=O)N1CCC[C@H]1c1ncc(-c2ccc3cc(-c4ccc5c(=O)cc(C6C[C@@H]7CCCC[C@@H]7N6C(=O)[C@@H](NC(=O)OC)C(C)C)[nH]c5c4)ccc3c2)[nH]1)C(C)C (stereo partly shown) [Compound 119a],0.033 nM,,
COC(=O)NC(C(=O)N1CCCC1c1cc(=O)c2ccc(-c3ccc4cc(-c5cnc([C@@H]6CCCN6C(=O)[C@@H](NC(=O)OC)C(C)C)[nH]5)ccc4c3)cc2[nH]1)C1CCOCC1 (stereo partly shown) [Compound 13-A4],1.2 nM,,
CC[C@@H](C)[C@H](NC(=O)OC)C(=O)N1CCCC1c1cc(=O)c2ccc(-c3ccc4cc(-c5cnc([C@@H]6CCCN6C(=O)[C@@H](NC(=O)OC)C(C)C)[nH]5)ccc4c3)cc2[nH]1 (stereo partly shown) [Compound 13-A5],0.062 nM,,
COC(=O)N[C@H](C(=O)N1CCCC1c1cc(=O)c2cc(-c3ccc4cc(-c5cnc([C@@H]6CCCN6C(=O)[C@@H](NC(=O)OC)[C@@H](C)OC)[nH]5)ccc4c3)ccc2[nH]1)[C@@H](C)OC (stereo partly shown) [Compound 23b],,0.34 nM,
"COC(=O)N[C@H](C(=O)N1CCCC1c1[nH]c2cc(-c3ccc4cc(-c5cnc([C@@H]6CCCN6C(=O)[C@@H](NC(=O)OC)C(C)C)[nH]5)ccc4c3)ccc2c(=O)c1Cl)C(C)C (single isomer, unassigned) [Compound 106a]",,0.12 nM,
COC(=O)N[C@H](C(=O)N1CCCC1c1[nH]c2cc(-c3ccc4cc(-c5cnc([C@@H]6CCCN6C(=O)[C@@H](NC(=O)OC)C(C)C)[nH]5)ccc4c3)ccc2c(=O)c1C)C(C)C (stereo partly shown) [Compound 102b],20.6 nM,,
CC[C@H](C)[C@H](NC(=O)OC)C(=O)N1CCCC1c1cc(=O)c2cc(-c3ccc4cc(-c5cnc([C@@H]6CCCN6C(=O)[C@@H](NC(=O)OC)[C@@H](C)CC)[nH]5)ccc4c3)ccc2[nH]1 (stereo partly shown) [Compound 24],,0.048 nM,
CC[C@H](C)[C@H](NC(=O)OC)C(=O)N1CCCC1c1cc(=O)c2ccc(-c3ccc4cc(-c5cnc([C@@H]6CCCN6C(=O)[C@@H](NC(=O)OC)C(C)C)[nH]5)ccc4c3)cc2[nH]1 (stereo partly shown) [Compound 13-A3],,,A->B permeability (Papp × 10^−6 cm/sec) in the presence the P-gp inhibitor GF120918 (LLC-MDR1 monolayers): 0.9 10^−6 cm/sec
COC(=O)N[C@H](C(=O)N1CCCC1c1cc2ccc(-c3ccc4cc(-c5cnc([C@@H]6CCCN6C(=O)[C@@H](NC(=O)OC)[C@@H](C)OC)[nH]5)ccc4c3)cc2c(=O)[nH]1)[C@@H](C)OC (stereo partly shown) [Compound 20-A],,,"EC50 ([1]; Hepatitis C virus, Huh-7, 72 h, read-out: HCV-REP-HUH7LUC_EC50 (nM), Huh-Luc replicon cells, three days incubation, luciferase activity): 0.2 nM"
COC[C@H](NC(=O)OC(C)(C)C)C(=O)N1CCCC1c1cc(=O)c2ccc(-c3ccc4cc(-c5cnc([C@@H]6CCCN6C(=O)[C@@H](NC(=O)OC)C(C)C)[nH]5)ccc4c3)cc2[nH]1 (stereo partly shown) [Compound 13-A7],0.053 nM,,
